Experimental data reported in patent US20260345591A1, “COMBINATIONS OF ESTROGEN RECEPTOR DEGRADERS AND CDK4 INHIBITORS” (PFIZER INC., priority 2023, published 2026).
Entries after “also recorded” stand apart in the source; their conditions may differ.

Columns and labels:
MCF7 xenograft model = assay: Tumor growth inhibition (anti-tumor efficacy) in MCF7 xenograft model, HR+/HER2- breast cancer; type: in vivo, Mus musculus (NSG mice); settings: for TGI / TGI, statistical significance (ANCOVA): Day 41
Method: To generate MCF7 PO donors, cells were obtained from ATCC and cultured in RPM11640 supplemented with 10% FBS. All cells were maintained in a humidified incubator at 37 °C with 5% CO2.
To establish the MCF7 PO donor mice, cells (5×10^6/mouse with 50% Cultrex® Basement Membrane Matrix) were subcutaneously (in 0.2 mL total volume) implanted in female NSG mice supplemented with 17β-ESTRADIOL water ad libidum (8.5 μg/mL concentration). The 17β-ESTRADIOL water supplement was administered about 7 days before the implant and all throughout the duration of the study.
(§1) To establish the MCF7 P1, when tumor volume of MCF7 PO donor mice reached a range of 700 to 800 mm3, tumors were collected and cut into fragments. The fragments were subsequently transplanted into secondary recipient mice for TGI study expansion. Secondary recipient mice were than randomly assigned to groups (n=10) when tumor volumes reached a range between 143 mm3 and 209 mm3 and subsequently treated with: 1) vehicle (0.5% methylcellulose A4M/water), PO; 2) fulvestrant at 10 mg/kg twice in the first week, then weekly afterwards, SC; 3) Compound A at 30 mg/kg QD, PO; 4) Compound B at 30 mg/kg BID, PO; 5) Compound B at 60 mg/kg BID, PO; 6) Compound B at 30 mg/kg plus fulvestrant; 7) Compound B at 60 mg/kg plus fulvestrant; 8) Compound B at 30 mg/kg plus Compound A; 9) Compound B at 60 mg/kg plus […]; 10) palbociclib at 10 mg/kg BID, PO plus Compound A. All mice received treatment continuously until Day 42. TGI was assessed on Day 41 post first dose.
For the efficacy measurements, tumor volume and body weights were collected twice a week. Tumor volume was calculated using the [(Length×Width×Width)/2)] formula. TGI was calculated as 100*(1−ΔT/ΔC). The ΔC (ΔT) was obtained by subtracting the mean tumor burden in the vehicle (treated) group on the first day of treatment (Day 0) from the mean tumor burden in vehicle (treated) group on the assessment day. Statistical analysis was performed using TGI Analyzer ANCOVA. BLISS statistical analysis (statistical modeling of single drug response from drug combination data) was used to measure synergy effect, a combination is synergistic if the tumor volume is less than the BLISS with pvalue of <0.05.
Compound B was tested at two CRD dose levels (30 mg/kg, BID and 60 mg/kg, BID) as a single agent or in combination with Compound A at 30 mg/kg QD or fulvestrant at CRD (10 mg/kg). Palbociclib at CRD (10 mg/kg, BID) in combination with Compound A served as a positive comparator.

[1] = Preclinical exposure of epimer Compound C compared to Compound A; type: in vivo; settings: preclinical data
estrogen receptor = target: T1, estrogen receptor (Homo sapiens, UniProt P03372); assay: Degradation of the estrogen receptor; type: cell-based; settings: preclinical data
T1 construct: cereblon-recruiting PROTAC degradation
T1 sequence (P03372 1-595): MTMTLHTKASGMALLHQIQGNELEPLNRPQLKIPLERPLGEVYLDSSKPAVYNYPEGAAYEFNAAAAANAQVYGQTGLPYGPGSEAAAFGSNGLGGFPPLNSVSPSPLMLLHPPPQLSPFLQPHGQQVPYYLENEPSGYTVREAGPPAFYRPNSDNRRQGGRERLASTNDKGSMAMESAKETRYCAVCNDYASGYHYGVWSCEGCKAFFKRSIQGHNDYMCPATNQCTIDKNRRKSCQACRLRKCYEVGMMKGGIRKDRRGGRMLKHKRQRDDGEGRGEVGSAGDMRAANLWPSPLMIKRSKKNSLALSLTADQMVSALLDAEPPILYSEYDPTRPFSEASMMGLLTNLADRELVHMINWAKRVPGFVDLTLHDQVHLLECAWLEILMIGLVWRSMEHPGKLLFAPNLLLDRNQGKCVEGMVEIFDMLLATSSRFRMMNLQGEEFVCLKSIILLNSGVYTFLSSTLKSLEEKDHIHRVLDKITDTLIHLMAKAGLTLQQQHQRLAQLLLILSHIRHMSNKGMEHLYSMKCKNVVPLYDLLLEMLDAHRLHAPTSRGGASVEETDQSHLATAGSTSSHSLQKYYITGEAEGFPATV

[2] = Interconversion to epimer; type: physicochemical
[3] = tested on: HR+HER2− BC Xenograft Model MCF7; assay: Tumor regrowth after end of treatment in MCF7 xenograft model; type: in vivo, Mus musculus (NSG mice); settings: fulvestrant 10 mg/kg alone; Compound A 30 mg/kg QD alone; palbociclib 10 mg/kg BID + Compound A 30 mg/kg QD
Method: as §1
For the efficacy measurements, tumor volume and body weights were collected twice a week. Tumor volume was calculated using the [(Length×Width×Width)/2)] formula. TGI was calculated as 100*(1−ΔT/ΔC). […]
Tumor growth delay was monitored after treatment was discontinued on Day 43 and statistical analysis was performed on Day 26 post last dose (Day 69 post study start).

[4] = Biopharmaceutics Classification System (solubility/permeability); type: physicochemical
[5] = fulvestrant 10 mg/kg alone, Compound A 30 mg/kg QD alone, palbociclib 10 mg/kg BID + Compound A 30 mg/kg QD

CC(C)n1c(C(C)(C)O)nc2c(F)cc(-c3nc(N[C@@H]4CCOC[C@H]4O)ncc3Cl)cc21 [Compound B, 1,5-anhydro-3-({5-chloro-4-[4-fluoro-2-(2-hydroxypropan-2-yl)-1-(propan-2-yl)-1H-benzimidazol-6-yl]pyrimidin-2-yl}amino)-2,3-dideoxy-D-threo-pentitol]
TGI (MCF7 xenograft model; Compound B 30 mg/kg PO BID × 42 D): 62% | TGI (MCF7 xenograft model; Compound B 60 mg/kg PO BID × 42 D): 81% | TGI, statistical significance (ANCOVA) (MCF7 xenograft model; Compound B at 30 mg/kg BID, alone or + fulvestrant 10 mg/kg): *α ^ | TGI, statistical significance (ANCOVA) (MCF7 xenograft model; Compound B at 60 mg/kg BID, alone, + fulvestrant 10 mg/kg or + Compound A 30 mg/kg QD): *+α | antitumor efficacy (MCF7 xenograft model; Compound B at 30 and 60 mg/kg BID, alone or + Compound A 30 mg/kg QD): significant tumor growth inhibition; also recorded: significant efficacy

O=C1CC[C@@H](N2Cc3cc(N4CCN(CC5CCN(c6ccc([C@@H]7c8ccc(O)cc8CC[C@@H]7c7ccccc7)cc6)CC5)CC4)ccc3C2=O)C(=O)N1 [Compound C]
exposure of Compound C compared to Compound A [1]: < 26% | degradation of the estrogen receptor (estrogen receptor): does not degrade the estrogen receptor

C[C@]12CC[C@@H]3c4ccc(O)cc4C[C@@H](CCCCCCCCC[S+]([O-])CCCC(F)(F)C(F)(F)F)[C@H]3[C@@H]1CC[C@@H]2O (stereo partly drawn) [Fulvestrant, fulvestrant, reference compound]
TGI (MCF7 xenograft model; fulvestrant 10 mg/kg SC, D 1, D 3, then 1x/week × 5 W): −7% | antitumor efficacy (MCF7 xenograft model; [5]): no tumor growth inhibition

O=C1CC[C@H](N2Cc3cc(N4CCN(CC5CCN(c6ccc([C@@H]7c8ccc(O)cc8CC[C@@H]7c7ccccc7)cc6)CC5)CC4)ccc3C2=O)C(=O)N1 [Compound A, (S)-3-(5-(4-((1-(4-((1R,2S)-6-hydroxy-2-phenyl-1,2,3,4-tetrahydronaphthalen-1-yl)phenyl)piperidin-4-yl)methyl)piperazin-1-yl)-1-oxoisoindolin-2-yl)piperidine-2,6-dione]
interconversion to epimer Compound C [2]: can interconvert to its epimer | TGI (MCF7 xenograft model; Compound A 30 mg/kg PO QD × 42 D): 119% | TGI, statistical significance (ANCOVA) (MCF7 xenograft model; Compound A 30 mg/kg QD, alone or with palbociclib 10 mg/kg BID): *α+βγ | antitumor efficacy (MCF7 xenograft model; [5]): significant tumor regression; also recorded: no significant differences in the TGI | Tumor regrowth, ANCOVA Analysis (Day 26 post end of treatment) [3]: β (indicates p < 0.05 versus Compound B single agent) | Biopharmaceutics Classification System class [4]: Class IV compound (low solubility/low permeability)
